From patent US7049282B2, “Inhibition of complement action” (Duke University, priority 1999, dated 2006)

Tested on: complement binding to the sheep erythrocyte targets
Test: standard assay of inhibition of complement binding (Miletic et al): sheep erythrocytes sensitized with rabbit antibody, C8D human serum
Format: biochemical
Description: In addition to the peptides and derivatives described above, the invention also relates to mimetics of the peptides that have the above-described complement blocking function. The mimetics can be identified using protocols available in the art, including those described by Miletic et al, J. Immunology 156:749 (1996)) which are based on the binding of complement to antibody-sensitized red blood cells and on the binding of complement to solid phase immune complexes. As described below, these protocols can be used to identify complement-blocking peptides and derivatives as well.
Peptides, derivatives and mimetics that block complement function can be identified by incubating a target for an active complement protein, for example, antibody-coated particles (e.g., antibody-sensitized red blood cells) or immune complexes (e.g., bovine serum albumin-anti-bovine serum complexes) bound to a solid support, with the a complement protein or a complement activating system (e.g., containing C3 or C4 or mixtures of complement proteins such as found in serum (e.g., C8 or C9 deficient serum)), in the presence and in the absence of the test agent (peptide, derivative or mimetic). […] The amount of binding can be determined using any of a variety of approaches, including using radiolabeled anti-complement protein IgG. […]

## WESNGQPENN
IgG fragments and peptides isolated from digests
  activity in inhibiting complement binding: highly active
Synthesized peptides
  activity in complement inhibition: highly active
